Measured values reported in paper PMC7840908 (Communications Biology, 2021).
“And” between values parts separate entries of the source, which are not always exact repeats. Equal values may be shown once. “Also recorded” adds a separate entry of the source.

Legend:
MERS-CoV macro domain [1] = molecular target: T1, MERS-CoV macro domain (Middle East respiratory syndrome-related coronavirus, UniProt K9N638); assay type: binding
MERS-CoV macro domain [2] = molecular target: T1, MERS-CoV macro domain; assay type: binding; remark: listed apart in the source
MERS-CoV macro domain [3] = molecular target: T1, MERS-CoV macro domain; assay type: binding; remark: listed apart in the source
MERS-CoV macro domain [4] = molecular target: T1, MERS-CoV macro domain; assay type: binding; remark: listed apart in the source
MERS-CoV macro domain [5] = molecular target: T1, MERS-CoV macro domain; assay type: biochemical
MERS-CoV = settings: cited from earlier work

T1 sequence (K9N638 1110-1276 limits assumed): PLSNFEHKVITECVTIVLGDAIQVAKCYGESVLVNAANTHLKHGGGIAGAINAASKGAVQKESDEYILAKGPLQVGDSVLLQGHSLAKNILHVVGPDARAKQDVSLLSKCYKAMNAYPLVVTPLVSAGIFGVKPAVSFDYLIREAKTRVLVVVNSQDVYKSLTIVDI

SMILES: Nc1ncnc2c1ncn2C1OC(COP(=O)(O)OP(=O)(O)OCC2OC(O)C(O)C2O)C(O)C1O (stereo not shown) [ADPR, ADP-ribose]
- Melting temperature (Tm) of the MERS-CoV macro domain in complex, DSF (MERS-CoV macro domain [1]): 49.0 °C
- Melting temperature (Tm) of the MERS-CoV macro domain in complex, CD (MERS-CoV macro domain [2]): 48.8 °C
- entropy contribution (MERS-CoV macro domain [3]): −9.30 ± 17.61 J/mol K
- n (stoichiometry of binding) (MERS-CoV macro domain [3]): 1.25 ± 0.08 and 1.20 ± 0.19
- NMR CSP, residue 2 (MERS-CoV macro domain [4]): 0.05411
- NMR CSP, residue 3 (MERS-CoV macro domain [4]): 0.1983 and 0.2813
- NMR CSP, residue 5 (MERS-CoV macro domain [4]): 0.069
- NMR CSP, residue 6 (MERS-CoV macro domain [4]): 0.06294 and 0.07046
- NMR CSP, residue 7 (MERS-CoV macro domain [4]): 0.1539 and 0.09995
- NMR CSP, residue 8 (MERS-CoV macro domain [4]): 0.1145 and 0.09451
- NMR CSP, residue 13 (MERS-CoV macro domain [4]): 0.06576 and 0.04291
- NMR CSP, residue 15 (MERS-CoV macro domain [4]): 0.1078 and 0.09719
- NMR CSP, residue 16 (MERS-CoV macro domain [4]): 0.1514 and 0.1186
- NMR CSP, residue 17 (MERS-CoV macro domain [4]): 0.0814 and 0.0623
- NMR CSP, residue 18 (MERS-CoV macro domain [4]): 0.08432 and 0.05219
- NMR CSP, residue 19 (MERS-CoV macro domain [4]): 0.3848 and 0.3419
- NMR CSP, residue 20 (MERS-CoV macro domain [4]): 0.8973 and 0.7322
- NMR CSP, residue 22 (MERS-CoV macro domain [4]): 0.3525 and 0.4007
- NMR CSP, residue 23 (MERS-CoV macro domain [4]): 0.383
- NMR CSP, residue 25 (MERS-CoV macro domain [4]): 0.05156 and 0.08317
- NMR CSP, residue 26 (MERS-CoV macro domain [4]): 0.1992 and 0.1277
- NMR CSP, residue 27 (MERS-CoV macro domain [4]): 0.03208
- NMR CSP, residue 28 (MERS-CoV macro domain [4]): 0.1376 and 0.09301
- NMR CSP, residue 29 (MERS-CoV macro domain [4]): 0.03731 and 0.02244
- NMR CSP, residue 31 (MERS-CoV macro domain [4]): 0.0401 and 0.04027
- NMR CSP, residue 32 (MERS-CoV macro domain [4]): 0.3295 and 0.3317
- NMR CSP, residue 40 (MERS-CoV macro domain [4]): 0.1305
- NMR CSP, residue 42 (MERS-CoV macro domain [4]): 0.3421 and 0.2454
- NMR CSP, residue 45 (MERS-CoV macro domain [4]): 0.9446
- NMR CSP, residue 46 (MERS-CoV macro domain [4]): 1.504 and 1.393
- NMR CSP, residue 48 (MERS-CoV macro domain [4]): 1.083
- NMR CSP, residue 49 (MERS-CoV macro domain [4]): 0.7736
- NMR CSP, residue 50 (MERS-CoV macro domain [4]): 0.4669 and 0.3863
- NMR CSP, residue 51 (MERS-CoV macro domain [4]): 0.1048 and 0.1583
- NMR CSP, residue 52 (MERS-CoV macro domain [4]): 0.2728 and 0.1547
- NMR CSP, residue 53 (MERS-CoV macro domain [4]): 0.1687 and 0.136
- NMR CSP, residue 54 (MERS-CoV macro domain [4]): 0.08878 and 0.08252
- NMR CSP, residue 55 (MERS-CoV macro domain [4]): 0.1049 and 0.106
- NMR CSP, residue 56 (MERS-CoV macro domain [4]): 0.1546 and 0.1346
- NMR CSP, residue 57 (MERS-CoV macro domain [4]): 0.138 and 0.07814
- NMR CSP, residue 59 (MERS-CoV macro domain [4]): 0.122 and 0.1437
- NMR CSP, residue 60 (MERS-CoV macro domain [4]): 0.1518 and 0.1952
- NMR CSP, residue 62 (MERS-CoV macro domain [4]): 0.2878 and 0.2628
- NMR CSP, residue 63 (MERS-CoV macro domain [4]): 0.1045 and 0.05935
- NMR CSP, residue 64 (MERS-CoV macro domain [4]): 0.3272 and 0.2442
- NMR CSP, residue 66 (MERS-CoV macro domain [4]): 0.09722 and 0.08557
- NMR CSP, residue 67 (MERS-CoV macro domain [4]): 0.1931 and 0.1393
- NMR CSP, residue 68 (MERS-CoV macro domain [4]): 0.02796 and 0.05038
- NMR CSP, residue 71 (MERS-CoV macro domain [4]): 0.06402
- NMR CSP, residue 73 (MERS-CoV macro domain [4]): 0.05219
- NMR CSP, residue 74 (MERS-CoV macro domain [4]): 0.2006 and 0.1195
- NMR CSP, residue 76 (MERS-CoV macro domain [4]): 0.3259 and 0.302
- NMR CSP, residue 77 (MERS-CoV macro domain [4]): 0.2091 and 0.1118
- NMR CSP, residue 78 (MERS-CoV macro domain [4]): 0.3066 and 0.2179
- NMR CSP, residue 79 (MERS-CoV macro domain [4]): 0.2231 and 0.1318
- NMR CSP, residue 81 (MERS-CoV macro domain [4]): 0.02964 and 0.02247
- NMR CSP, residue 82 (MERS-CoV macro domain [4]): 0.08035 and 0.07748
- NMR CSP, residue 88 (MERS-CoV macro domain [4]): 0.05214 and 0.02732
- NMR CSP, residue 90 (MERS-CoV macro domain [4]): 0.03514 and 0.02202
- NMR CSP, residue 91 (MERS-CoV macro domain [4]): 0.0404 and 0.05921
- NMR CSP, residue 92 (MERS-CoV macro domain [4]): 0.2456 and 0.1395
- NMR CSP, residue 93 (MERS-CoV macro domain [4]): 0.4982 and 0.3283
- NMR CSP, residue 94 (MERS-CoV macro domain [4]): 1.407 and 1.235
- NMR CSP, residue 95 (MERS-CoV macro domain [4]): 0.4425 and 0.3726
- NMR CSP, residue 97 (MERS-CoV macro domain [4]): 0.5401 and 0.4521
- NMR CSP, residue 100 (MERS-CoV macro domain [4]): 0.1106 and 0.08163
- NMR CSP, residue 105 (MERS-CoV macro domain [4]): 0.06587
- NMR CSP, residue 106 (MERS-CoV macro domain [4]): 0.1936 and 0.1903
- NMR CSP, residue 107 (MERS-CoV macro domain [4]): 0.1268 and 0.1117
- NMR CSP, residue 108 (MERS-CoV macro domain [4]): 0.06699 and 0.04787
- NMR CSP, residue 110 (MERS-CoV macro domain [4]): 0.1341 and 0.1262
- NMR CSP, residue 116 (MERS-CoV macro domain [4]): 0.02109 and 0.03031
- NMR CSP, residue 117 (MERS-CoV macro domain [4]): 0.04981 and 0.05032
- NMR CSP, residue 120 (MERS-CoV macro domain [4]): 0.07982 and 0.07783
- NMR CSP, residue 125 (MERS-CoV macro domain [4]): 0.9414 and 0.7836
- NMR CSP, residue 126 (MERS-CoV macro domain [4]): 0.4011 and 0.2956
- NMR CSP, residue 127 (MERS-CoV macro domain [4]): 0.636 and 0.5379
- NMR CSP, residue 131 (MERS-CoV macro domain [4]): 0.2256 and 0.1765
- NMR CSP, residue 132 (MERS-CoV macro domain [4]): 0.8759
- NMR CSP, residue 133 (MERS-CoV macro domain [4]): 0.6064 and 0.6446
- NMR CSP, residue 135 (MERS-CoV macro domain [4]): 0.1312 and 0.07635
- NMR CSP, residue 136 (MERS-CoV macro domain [4]): 0.08199 and 0.1121
- NMR CSP, residue 137 (MERS-CoV macro domain [4]): 0.1059 and 0.1517
- NMR CSP, residue 138 (MERS-CoV macro domain [4]): 0.1473 and 0.115
- NMR CSP, residue 139 (MERS-CoV macro domain [4]): 0.07462 and 0.1086
- NMR CSP, residue 140 (MERS-CoV macro domain [4]): 0.04879 and 0.03054
- NMR CSP, residue 141 (MERS-CoV macro domain [4]): 0.06216 and 0.08925
- NMR CSP, residue 145 (MERS-CoV macro domain [4]): 0.2809 and 0.3196
- NMR CSP, residue 148 (MERS-CoV macro domain [4]): 0.04359 and 0.06607
- NMR CSP, residue 149 (MERS-CoV macro domain [4]): 0.112 and 0.08955
- NMR CSP, residue 150 (MERS-CoV macro domain [4]): 0.04 and 0.03962
- NMR CSP, residue 152 (MERS-CoV macro domain [4]): 0.255 and 0.1438
- NMR CSP, residue 153 (MERS-CoV macro domain [4]): 0.3264 and 0.2803
- NMR CSP, residue 154 (MERS-CoV macro domain [4]): 0.8835 and 0.7254
- NMR CSP, residue 155 (MERS-CoV macro domain [4]): 0.3976 and 0.2797
- NMR CSP, residue 156 (MERS-CoV macro domain [4]): 0.2021
- NMR CSP, residue 157 (MERS-CoV macro domain [4]): 0.1187 and 0.09085
- NMR CSP, residue 158 (MERS-CoV macro domain [4]): 0.04463 and 0.03077
- NMR CSP, residue 162 (MERS-CoV macro domain [4]): 0.06097 and 0.0557
- NMR CSP, residue 163 (MERS-CoV macro domain [4]): 0.2144 and 0.1623
- NMR CSP, residue 164 (MERS-CoV macro domain [4]): 0.08089 and 0.05482
- Effect on MAR signals in the deMAR reaction (MERS-CoV macro domain [5]): the MAR signals reduced fewer

SMILES: NC(=O)c1ccc[n+]([C@@H]2O[C@H](COP(=O)([O-])OP(=O)(O)OC[C@H]3O[C@@H](n4cnc5c(N)ncnc54)[C@H](O)[C@@H]3O)[C@@H](O)[C@H]2O)c1 [NAD, nicotinamide adenine dinucleotide]
- Melting temperature (Tm) of the MERS-CoV macro domain in complex, DSF (MERS-CoV macro domain [1]): 46.5 °C
- Melting temperature (Tm) of the MERS-CoV macro domain in complex, CD (MERS-CoV macro domain [2]): 46.6 °C
- entropy contribution (MERS-CoV macro domain [3]): −22.59 ± 3.77 J/mol K
- n (stoichiometry of binding) (MERS-CoV macro domain [3]): 1.04 ± 0.12 and 0.938 ± 0.13
- NMR CSP, residue 25 (MERS-CoV macro domain [4]): 0.05155 and 0.0863
- NMR CSP, residue 27 (MERS-CoV macro domain [4]): 0.02171 and 0.02658
- NMR CSP, residue 35 (MERS-CoV macro domain [4]): 0.0131
- NMR CSP, residue 36 (MERS-CoV macro domain [4]): 0.01783
- NMR CSP, residue 37 (MERS-CoV macro domain [4]): 0.07975
- NMR CSP, residue 38 (MERS-CoV macro domain [4]): 0.01444
- NMR CSP, residue 45 (MERS-CoV macro domain [4]): 0.2497
- NMR CSP, residue 47 (MERS-CoV macro domain [4]): 0.006205
- NMR CSP, residue 48 (MERS-CoV macro domain [4]): 0.04145
- NMR CSP, residue 49 (MERS-CoV macro domain [4]): 0.01049
- NMR CSP, residue 79 (MERS-CoV macro domain [4]): 0.07732 and 0.1287
- NMR CSP, residue 104 (MERS-CoV macro domain [4]): 0.01357 and 0.02257
- NMR CSP, residue 115 (MERS-CoV macro domain [4]): 0.005468 and 0.008456
- NMR CSP, residue 124 (MERS-CoV macro domain [4]): 0.0754 and 0.108
- NMR CSP, residue 128 (MERS-CoV macro domain [4]): 0.1673
- NMR CSP, residue 129 (MERS-CoV macro domain [4]): 0.02609
- NMR CSP, residue 130 (MERS-CoV macro domain [4]): 0.008538
- NMR CSP, residue 132 (MERS-CoV macro domain [4]): 0.01478
- NMR CSP, residue 140 (MERS-CoV macro domain [4]): 0.01724 and 0.02911
- NMR CSP, residue 143 (MERS-CoV macro domain [4]): 0.0201 and 0.02422
- NMR CSP, residue 156 (MERS-CoV macro domain [4]): 0.0383
- NMR chemical shift perturbation behaviour / exchange regime (MERS-CoV macro domain [4]): only a few residues presented CSPs; also recorded: slow-exchange
- Effect on MAR signals in the deMAR reaction (MERS-CoV macro domain [5]): the MAR signals reduced more

SMILES: Oc1ccc(/C=C/c2cc(O)cc(O)c2)cc1 [resveratrol]
- Effect on replication of MERS-CoV (MERS-CoV): inhibit the replication of MERS-CoV
